Test results reported in patent US20250108050A1, “COMBINATION OF EGFR INHIBITOR AND MEK INHIBITOR FOR USE IN THE TREATMENT OF NRAS MUTATED CANCER” (ASTRAZENECA AB, priority 2014, published 2025).

Tests used:
[1] = tested on: PC9 cells; assay: cells; details: Homo sapiens, PC-9, read-out: concentration required to inhibit growth of PC9 cells by 50% (EC50)
Experimental: PC9 cells were seeded at 5×10^5 cells in multiple fresh T75 flasks in growth media and incubated at 37° C., 5% CO2.

[2] = tested on: active NRAS; assay: RAS activation assay (GST-RAS binding domain pull down, western blot) in parental PC-9 cells; format: cell-based, human; details: 160 nM for 2 hours
Experimental: (§1) PC9 and PC9 AZD9291 resistant cells were cultured in media containing no AZD9291 for 4 days. Cells were then plated into 6 well plates and serum starved overnight. The following day the cells were treated for 2 hours with media supplemented with or without 160 nM AZD9291. Lysates were prepared and active NRAS isolated using a GST-RAS binding domain pull down assay (Thermo Scientific). Pull down lysates were analysed by western blot using an NRAS specific antibody.

[3] = tested on: active NRAS; assay: RAS activation assay (GST-RAS binding domain pull down, western blot) in resistant PC-9 cells with E63K or G12V NRAS; format: cell-based, human; details: mutant NRAS (E63K or G12V) resistant PC-9 cells; 160 nM for 2 hours
Experimental: as §1

[4] = tested on: PC9 cells; assay: Growth inhibition of PC9 cells over expressing E63K mutant NRAS (sytox green); format: cell-based, human; details: 100 nM AZD9291 or 300 nM gefitinib, 96 hours, vs control construct
Experimental: PC9 cells were transfected with control DNA construct, pcDNA 3.1+ control, or a construct designed to express E63K mutant NRAS, pcDNA 3.1+/NRAS E63K, (Life Technologies Ltd.). For 96 hour expression MaxCyte transfection technology was used to electroporate the PC9 cells. PC9 cells were passaged the day before the transfection. On the day of the transfection cells were harvested and resuspended at 9×10^7 cells per 600 μL MaxCyte buffer. 100 μL of cell suspension was transferred to a MaxCyte cuvette and the cells electroporated with 20 μg DNA construct. Following electroporation the cells for each condition were transferred to a 6 well plate and incubated at 37° C. for 30 minutes after which they were seeded in a 6 well plate at 4×10^5 cells per well. Following over night incubation the cells were harvested and replated in 384 well plate at 1000 cells/well. […] A live cell number was determined using the sytox green method as described hereinbefore.

[5] = tested on: PC9 (NRAS WT); assay: Sytox Green live cell number assay, selumetinib titration; format: cell-based; details: Homo sapiens, PC9 (NRAS WT) parental, 72 hours
Experimental: (§2) The effects of a panel of canonical pathway inhibitors on cell growth and survival was measured using a cell assay using Sytox Green staining as an end point.
(§3) Cell lines were plated in 384 well plates at 1000 cells per well in 70 μL per well of RPMI media containing 10% foetal calf serum, 2 mM L-glutamine and originating EGFR inhibitor.
(§4) The cells were allowed to attach overnight at 37° C., 5% CO2. The following day titrations of test compound were added to the assay plates using an Echo Liquid Handler Labcyte (California, USA) and the treated cells incubated for a further 72 hours at 37° C., 5% CO2. Each compound was tested as an 11 point dose response with a top concentration of 10 μM and 1 in 3 dilutions. Following 72 hours incubation of the compound treated plates, 5 μL of 2 μM SYTOX Green Nucleic Acid Stain, Life Technologies (Paisley, UK) was added per well and the plates incubated at room temperature for one hour. The number of fluorescent cells per well was measured on the Acumen TTP LabTech Ltd. (Melbourn, UK) this number representing the dead cell count. 10 μL of 0.25% Saponin Sigma (Dorset, UK) was added per well and the plates incubated over night at room temperature. The total number of fluorescent cells per well was acquired on the Acumen. The number of dead cells was subtracted from the total number of cells and the live cell number plotted to determine EC50 values from dose response curves.

[6] = tested on: PC9_9291R_3 (NRAS G12V); assay: as above; format: cell-based; details: Homo sapiens, with originating EGFR inhibitor, 72 hours
Experimental: as §2, §3, §4

[7] = tested on: PC9_9291R_LOB1 (NRAS E63K); assay: as above; format: cell-based; details: Homo sapiens, with originating EGFR inhibitor, 72 hours
Experimental: as §2, §3, §4

[8] = tested on: PC9_IR4_9291R_2 (NRAS WT gain); assay: as above; format: cell-based; details: Homo sapiens, with originating EGFR inhibitor, 72 hours
Experimental: as §2, §3, §4

[9] = tested on: PC9_IR4_9291R_3 (NRAS WT gain); assay: as above; format: cell-based; details: Homo sapiens, with originating EGFR inhibitor, 72 hours
Experimental: as §2, §3, §4

[10] = tested on: PC9_IRGM (NRAS WT); assay: as above; format: cell-based; details: Homo sapiens, with originating EGFR inhibitor, 72 hours
Experimental: as §2, §3, §4

[11] = tested on: PC9_IRLR (NRAS E63K); assay: as above; format: cell-based; details: Homo sapiens, with originating EGFR inhibitor, 72 hours
Experimental: as §2, §3, §4

[12] = tested on: PC9_afatinib_5 (NRAS gain); assay: as above; format: cell-based; details: Homo sapiens, with originating EGFR inhibitor, 72 hours
Experimental: as §2, §3, §4

[13] = tested on: PC9_9291R_LOB3 (NRAS G12R); assay: as above; format: cell-based, human
Experimental: as §2, §3
as §4, with “The total number of fluorescent cells per well was acquired on the Acumen. The number of dead cells was subtracted from the total number of cells and the live cell number plotted to determine EC50 values from dose response curves.” left out
An AZD9291-resistant PC9 cell line was prepared using standard methods as illustrated hereinbefore. A range of such resistant cell populations were cultured and analysed.

[14] = tested on: NRAS; assay: siRNA knockdown, western blot of NRAS expression; format: cell-based, human; details: 20 nM siRNA, 48 hours; PC9, PC9 gefitinib-resistant and PC9 AZD9291-resistant cells
Experimental: (§5) PC9, PC9 gefitinib-resistant and PC9 AZD9291-resistant cells were plated at 5×10^5 cells per well in 6 well plates in 2 mls per well of growth media supplemented with EGFR inhibitor where appropriate (resistant cells were grown in the presence of EGFR inhibitor). The cells were incubated over night at 37° C., 5% CO2. The following day the cells were treated with a final concentration of 20 nM of siRNA from Dharmacon as detailed in Table 7.
(§6) Each siRNA construct was prepared in Optimem (Life Technologies) media using RNA iMAX (Invitrogen) as transfection reagent. For each well: 2.5 μl of siRNA (20 μM stock) was mixed with 250 μL of Optimem; and 2.5 μL of RNA iMAX was mixed with 250 μL of Optimem. The 2 solutions were mixed together by pipetting and allowed to stand for 5 minutes at room temperature. The final 500 μL solution was then pipetted into the appropriate 2 mL of growth media in the 6 well plates. The plates were swirled gently and further incubated over night at 37° C., 5% CO2. The following day each well of cells was harvested and the cell number counted.
(§7) The following day, lysates were prepared from the 6 well plates so that knockdown of protein expression could be assessed following 48 hours treatment with siRNA. The lysates were analysed by western blot for levels of: phosphorylated EGFR, phosphorylated ERK, NRAS and KRAS. […]

[15] = tested on: KRAS; assay: siRNA knockdown, western blot of KRAS expression; format: cell-based, human; details: 20 nM siRNA, 48 hours; PC9, PC9 gefitinib-resistant and PC9 AZD9291-resistant cells
Experimental: as §5, §6, §7

C=CC(=O)Nc1cc(Nc2nccc(-c3cn(C)c4ccccc34)n2)c(OC)cc1N(C)CCN(C)C [AZD9291, N-(2-{2-dimethylaminoethyl-methylamino}-4-methoxy-5-{[4-(1-methylindol-3-yl)pyrimidin-2-yl]amino}phenyl)prop-2-enamide]
EC50 [1]: 10 nM
active NRAS [2]: decrease
phosphorylated EGFR [2]: decrease
active NRAS [3]: not associated with corresponding decrease in active NRAS
phosphorylated EGFR [3]: decrease
cell growth inhibition when cells over expressed E63K mutant NRAS [4]: reduced

Cn1cnc2c(F)c(Nc3ccc(Br)cc3Cl)c(C(=O)NOCCO)cc21 [Selumetinib, 5-[(4-bromo-2-chlorophenyl)amino]-4-fluoro-N-(2-hydroxyethoxy)-1-methyl-1H-benzimidazole-6-carboxamide]
EC50 [5]: 6.95 µM
EC50 [6]: 1400 nM
EC50 [7]: 167 nM
EC50 [8]: 540 nM
EC50 [9]: 130 nM
EC50 [10]: 7.24 µM
EC50 [11]: 620 nM
EC50 [12]: 890 nM
increased sensitivity as compared to the parental cell line ([13]; AZD9291-resistant PC9 population with NRAS G12R vs parental cell line): > 5 fold
EC50 ([13]; Homo sapiens, PC9_9291R_LOB3 (NRAS G12R), with originating EGFR inhibitor, 72 hours): 140 nM

KRAS_1: siRNA from Dharmacon, J-005069-10, sequence GAAGUUAUGGAAUUCCUUU, SEQ ID NO: 16 (listed as RNA, chemistry not given here; listed as Homo sapiens)
NRAS expression (western blot) [14]: no affect
KRAS expression (western blot) [15]: knockdown
